{"source": "paper PMC6754336", "about": "(Drug Design, Development and Therapy, 2019)", "key": {"dopamine biosynthesis": {"system": "dopamine biosynthesis", "assay": "NSD-1015-induced DOPA accumulation in striatum of reserpine-treated rats", "type": "in vivo, rat", "settings": "p.o."}, "[1]": {"system": "dopamine turnover ((HVA+DOPAC)/DA)", "assay": "Dopamine turnover index in rat striatum", "type": "in vivo", "settings": "p.o."}, "[2]": {"assay": "Rat dual-probe brain microdialysis study", "type": "in vivo", "settings": "rat MD study, 1 mg/kg p.o."}, "[3]": {"settings": "human plasma; cited from earlier work"}, "[4]": {"system": "serotonin turnover (5-HIAA/5-HT)", "assay": "Serotonin turnover index in rat frontal cortex", "type": "in vivo", "settings": "p.o."}, "in vivo": {"assay": "in vivo", "settings": "male, Wistar, rat, plasma, other: p.o. and i.v."}}, "note": "Where a name gives a salt, the structure may show the parent alone.", "data": [{"smiles": "CN(C)C(=O)N[C@H]1CC[C@H](CCN2CCN(c3cccc(Cl)c3Cl)CC2)CC1", "note": "[CAR, trans-N-[4-[2-[4-(2,3-dichlorophenyl)piperazin-1-yl]ethyl]cyclohexyl]-N’,N’-dimethylureahydrochloride]", "values": [{"measurement": "effect on NSD-1015-induced accumulation of DOPA", "setting": "dopamine biosynthesis", "result": "inhibited the NSD-1015-induced accumulation of DOPA"}, {"measurement": "effect on dopamine turnover", "setting": "[1]", "result": "dose-dependently enhanced dopamine turnover"}, {"measurement": "free extracellular level as percent of total brain exposure", "setting": "[2]", "result": "1–2%"}, {"measurement": "extracellular levels in the brain", "setting": "[2]; listed as cariprazine, 1 mg/kg", "result": "2.6 to 9.9", "unit": "nM"}, {"measurement": "half-life in humans", "setting": "[3]", "result": "24 to 72", "unit": "h"}, {"measurement": "effect on serotonin turnover", "setting": "[4]", "result": "slightly reduced serotonin turnover"}, {"measurement": "half-life", "setting": "in vivo", "result": "2 to 3", "unit": "h"}]}]}
